Assay results as given in article PMC5128878 (Scientific Reports, 2016).
Where “and” joins values, the source holds several entries; their conditions need not be identical. Equal entries are not always repeated. Where two headings read alike, the source gives them in different places.

Key:
α4β2 nAChR = target: T1, α4β2 nAChR (Rattus norvegicus, UniProt P09483+P12390); assay: cell-based; type: cell-based; settings: for IC50: IC50 (95% CI), ACh 10 μM
T1 construct: expressed in transfected cells; host or cells: Xenopus laevis oocytes injected with cRNA
Method: (§1) cDNA clones of rat neuronal nAChR subunits (α3, α4, β2 and β4) and mouse muscle subunits (α1, β1, γ and δ) were from the Salk Institute for Biological Studies (Professor Stephen Heinemann). The human α7 and RIC-3 cDNAs were provided by Professor David Sattelle (University College London).
(§2) Oocytes isolated from mature female Xenopus laevis were supplied by the European Xenopus Resource Centre, University of Portsmouth, UK. Oocytes were treated with collagenase (0.5 mg/ml, Sigma type 1 A) in Ca^2+-free solution (96 mM NaCl, 2 mM KCl, 1 mM MgCl2, 5 mM HEPES, 2.5 mM Na-pyruvate, 100 U/mL penicillin, 0.1 mg/mL streptomycin, pH 7.5) with shaking at 19 °C to defolliculate and remove the connective tissue surrounding the cells. After separation, oocytes were washed 7 times with modified Barth’s solution (96 mM NaCl, 2 mM KCl, 1.8 mM CaCl2, 1 mM MgCl2, 5 mM HEPES, 2.5 mM Na-pyruvate, 0.5 mM theophylline, 50 μg/mL gentamicin, pH 7.5) and kept at 19 °C in the same solution.
(§3) Healthy oocytes were injected with cRNA using a Nano-liter Injector (World Precision Instruments Inc, USA). Mixtures of nAChR subunit cRNAs were injected as follows; for heteromeric rat neuronal receptors a 1:1 ratio of α:β at 200 ng/μL; for mouse embryonic muscle a 1:1:1:1 ratio of α:β:γ:δ at 25 ng/μL; human α7 at 100 ng/μL was mixed with RIC-3 at 30 ng/μL. Each oocyte was injected with 50 nL of RNA solution. Injected oocytes were saved in Barth’s solution at 19 °C for two to three days for expression of the target protein. During this time oocytes were regularly checked to remove unhealthy ones.
(§4) Electrophysiological recordings were taken from nAChR-expressing oocytes by two-electrode voltage clamp using a Geneclamp 500 voltage clamp amplifier (Axon instruments, USA). An oocyte was placed in the perfusion chamber using a plastic Pasteur pipette and the bath was perfused (~5 mL/min) with fresh Frog Ringer solution (96 mM NaCl, 2 mM KCl, 1.8 mM CaCl2 and 5 mM HEPES, pH 7.5). Microelectrodes were pulled from borosilicate glass capillaries (Harvard GC150TF-10) using a programmable micropipette puller (Sutter P97, USA), and they had resistances between 0.5 and 2.5 MΩ when filled with 3 M KCl. The oocyte was voltage-clamped at holding potentials (VH) between −60 and −100 mV. […] Currents were recorded to a PC via a digidata 1200 analog-to-digital converter (Axon Instuments, USA) using WinEDR v3.2.6 Software (Dr John Dempster, University of Strathclyde, UK).
(§5) Graphpad Prism 6 was used for data analysis, graph plotting and curve fitting. All plotted points are the mean ± SEM obtained from 4–20 oocytes.

α4β2(V253F) nAChR = target: T2, α4β2(V253F) nAChR (Rattus norvegicus, UniProt P09483+P12390, V277F); assay: Two-electrode voltage clamp of ACh currents, α4β2(V253F) nAChRs expressed in Xenopus oocytes; type: cell-based; settings: for IC50: α4β2(V253F), ACh 10 μM
T2 construct: expressed in transfected cells; host or cells: Xenopus laevis oocytes injected with cRNA
Method: as §1, §2, §3, §4, §5

α4β4 nAChR = target: T3, α4β4 nAChR (Rattus norvegicus, UniProt P09483+P12392); assay: cell-based; type: cell-based; settings: for IC50: IC50 (95% CI), ACh 10 μM
T3 construct: expressed in transfected cells; host or cells: Xenopus laevis oocytes injected with cRNA
Method: as §2, §3, §4, §5

α3β4 nAChR = target: T4, α3β4 nAChR (Rattus norvegicus, UniProt P04757+P12392); assay: cell-based
T4 construct: expressed in transfected cells; host or cells: Xenopus laevis oocytes injected with cRNA
Method: as §2, §3, §4, §5

α3β4(F255V) nAChR = target: T5, α3β4(F255V) nAChR (Rattus norvegicus, UniProt P04757+P12392, F275V); assay: Two-electrode voltage clamp of ACh currents, α3β4(F255V) nAChRs expressed in Xenopus oocytes; type: cell-based; settings: for IC50: α3β4(F255V), ACh 100 μM
T5 construct: expressed in transfected cells; host or cells: Xenopus laevis oocytes injected with cRNA
Method: as §1, §2, §3, §4, §5

α7 nAChR = target: T6, α7 nAChR (Homo sapiens, UniProt P36544); assay: Two-electrode voltage clamp of ACh currents, α7 nAChRs (with RIC-3) expressed in Xenopus oocytes; type: cell-based; settings: for IC50: IC50 (95% CI), ACh 100 μM
T6 construct: expressed in transfected cells; host or cells: Xenopus laevis oocytes injected with cRNA
Method: as §2, §3, §4, §5

α1β1γδ nAChR = target: T7, α1β1γδ nAChR (Mus musculus, UniProt P02716+P04756+P04760+P09690); assay: cell-based; type: cell-based; settings: α1β1γδ; for IC50: IC50 (95% CI), ACh 10 μM
T7 construct: expressed in transfected cells; host or cells: Xenopus laevis oocytes injected with cRNA
Method: as §2, §3, §4, §5

[1] = system: human muscle-type nAChRs in TE671 cells; assay: Muscle-type nAChRs in TE671 cells (previous study); type: cell-based; settings: previous study compared with present oocyte data ref 8
nAChRs = assay: Two-electrode voltage clamp of Xenopus oocytes expressing nAChRs, statements across tested subtypes; type: cell-based
Method: as §1, §2, §3, §4, §5

α3β2 nAChR = α3β2 nAChR (Rattus norvegicus, UniProt P04757+P12390); assay: Two-electrode voltage clamp of ACh currents, α3β2 nAChRs expressed in Xenopus oocytes; settings: for IC50: IC50 (95% CI), ACh 30 μM
Method: as §2, §3, §4, §5

[2] = VH −60 mV, late current (1 min), read-out: IC50 (95% CI), Late
[3] = VH −60 mV, peak current, read-out: IC50 (95% CI), Peak
[4] = VH −80 mV, late current (1 min), read-out: IC50 (95% CI), Late
[5] = VH −80 mV, peak current, read-out: IC50 (95% CI), Peak
[6] = VH −100 mV, late current (1 min), read-out: IC50 (95% CI), Late
[7] = VH −100 mV, peak current, read-out: IC50 (95% CI), Peak

T5 sequence (P04757 26-499): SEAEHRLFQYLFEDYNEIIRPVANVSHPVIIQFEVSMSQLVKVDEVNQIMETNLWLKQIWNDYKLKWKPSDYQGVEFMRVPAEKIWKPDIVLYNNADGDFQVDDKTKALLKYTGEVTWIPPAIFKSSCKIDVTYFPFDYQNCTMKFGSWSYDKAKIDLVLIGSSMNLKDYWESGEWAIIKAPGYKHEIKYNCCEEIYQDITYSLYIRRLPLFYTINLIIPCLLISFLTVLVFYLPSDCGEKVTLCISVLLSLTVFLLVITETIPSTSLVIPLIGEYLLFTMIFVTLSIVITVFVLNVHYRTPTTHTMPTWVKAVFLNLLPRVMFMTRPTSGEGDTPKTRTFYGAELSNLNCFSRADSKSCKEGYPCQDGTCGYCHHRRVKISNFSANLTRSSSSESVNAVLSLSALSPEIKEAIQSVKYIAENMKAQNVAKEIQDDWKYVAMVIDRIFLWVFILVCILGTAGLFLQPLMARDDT
T5 sequence (P12392 21-495 F275V): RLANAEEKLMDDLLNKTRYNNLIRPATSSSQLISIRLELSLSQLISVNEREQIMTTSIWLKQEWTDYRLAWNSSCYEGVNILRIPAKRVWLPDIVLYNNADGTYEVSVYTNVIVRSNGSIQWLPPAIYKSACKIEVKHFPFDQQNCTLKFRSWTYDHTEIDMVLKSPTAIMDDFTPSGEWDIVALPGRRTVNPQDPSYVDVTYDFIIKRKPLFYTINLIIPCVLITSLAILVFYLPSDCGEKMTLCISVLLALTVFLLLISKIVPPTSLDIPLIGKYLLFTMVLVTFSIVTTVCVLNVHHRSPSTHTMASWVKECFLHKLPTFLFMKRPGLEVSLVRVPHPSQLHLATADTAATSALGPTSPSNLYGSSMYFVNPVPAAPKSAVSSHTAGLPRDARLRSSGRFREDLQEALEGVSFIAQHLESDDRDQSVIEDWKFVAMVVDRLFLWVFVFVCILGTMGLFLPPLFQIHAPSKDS
Chain of α3β2 nAChR (P04757 26-499): as the sequence (P04757 26-499) above
Chain of α3β2 nAChR (P12390 25-500): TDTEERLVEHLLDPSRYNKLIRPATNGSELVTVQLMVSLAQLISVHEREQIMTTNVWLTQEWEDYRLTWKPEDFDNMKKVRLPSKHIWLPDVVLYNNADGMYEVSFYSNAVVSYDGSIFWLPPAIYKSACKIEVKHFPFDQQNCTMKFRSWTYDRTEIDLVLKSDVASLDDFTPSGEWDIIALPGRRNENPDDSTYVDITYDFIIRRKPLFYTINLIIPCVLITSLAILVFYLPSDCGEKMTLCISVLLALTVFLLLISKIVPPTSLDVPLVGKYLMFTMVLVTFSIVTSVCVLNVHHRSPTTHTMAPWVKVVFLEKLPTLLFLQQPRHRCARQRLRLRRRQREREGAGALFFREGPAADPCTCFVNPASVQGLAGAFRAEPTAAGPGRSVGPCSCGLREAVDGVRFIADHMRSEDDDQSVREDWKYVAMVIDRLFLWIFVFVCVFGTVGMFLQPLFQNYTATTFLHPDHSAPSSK
T4 sequence (P04757 26-499): as the sequence (P04757 26-499) above
T4 sequence (P12392 21-495): as the sequence (P12392 21-495 F275V) above, with V255F counted along it
T6 sequence (P36544 23-502): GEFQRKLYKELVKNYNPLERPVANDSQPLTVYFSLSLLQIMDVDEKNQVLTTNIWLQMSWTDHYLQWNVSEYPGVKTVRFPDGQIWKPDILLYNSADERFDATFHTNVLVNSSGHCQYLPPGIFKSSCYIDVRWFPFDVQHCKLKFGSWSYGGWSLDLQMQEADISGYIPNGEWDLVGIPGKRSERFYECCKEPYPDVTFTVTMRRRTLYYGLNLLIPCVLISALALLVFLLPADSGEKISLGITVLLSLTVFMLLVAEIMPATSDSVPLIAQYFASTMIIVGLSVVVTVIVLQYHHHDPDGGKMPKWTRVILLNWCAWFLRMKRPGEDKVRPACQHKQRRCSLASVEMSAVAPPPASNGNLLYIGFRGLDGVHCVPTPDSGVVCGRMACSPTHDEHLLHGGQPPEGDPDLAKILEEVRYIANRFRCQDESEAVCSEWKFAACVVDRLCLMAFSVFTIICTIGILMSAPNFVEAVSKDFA
T7 sequence (P04756 21-457): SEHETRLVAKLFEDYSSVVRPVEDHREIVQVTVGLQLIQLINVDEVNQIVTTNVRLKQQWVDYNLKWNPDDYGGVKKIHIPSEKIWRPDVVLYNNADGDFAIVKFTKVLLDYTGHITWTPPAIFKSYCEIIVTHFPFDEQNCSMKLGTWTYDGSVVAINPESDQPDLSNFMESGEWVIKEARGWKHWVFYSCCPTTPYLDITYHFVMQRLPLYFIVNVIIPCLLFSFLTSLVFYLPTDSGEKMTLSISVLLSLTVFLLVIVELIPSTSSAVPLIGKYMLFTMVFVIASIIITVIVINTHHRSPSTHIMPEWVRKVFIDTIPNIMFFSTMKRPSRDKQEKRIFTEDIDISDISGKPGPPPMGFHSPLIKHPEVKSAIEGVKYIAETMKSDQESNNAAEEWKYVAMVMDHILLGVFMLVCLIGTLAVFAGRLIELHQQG
T7 sequence (P09690 24-501): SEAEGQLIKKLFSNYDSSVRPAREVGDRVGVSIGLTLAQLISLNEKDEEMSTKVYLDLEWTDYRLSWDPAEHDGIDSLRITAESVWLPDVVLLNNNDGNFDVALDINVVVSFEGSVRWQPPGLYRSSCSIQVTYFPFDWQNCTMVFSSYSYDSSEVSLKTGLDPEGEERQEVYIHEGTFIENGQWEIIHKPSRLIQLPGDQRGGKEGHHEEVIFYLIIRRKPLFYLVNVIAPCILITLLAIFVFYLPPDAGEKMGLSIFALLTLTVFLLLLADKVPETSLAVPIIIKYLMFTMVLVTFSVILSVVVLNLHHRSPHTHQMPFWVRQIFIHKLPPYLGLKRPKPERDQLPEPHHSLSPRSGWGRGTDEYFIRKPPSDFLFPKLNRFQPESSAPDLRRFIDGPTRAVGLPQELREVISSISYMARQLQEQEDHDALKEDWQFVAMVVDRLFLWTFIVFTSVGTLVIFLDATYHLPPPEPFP
T7 sequence (P04760 23-519): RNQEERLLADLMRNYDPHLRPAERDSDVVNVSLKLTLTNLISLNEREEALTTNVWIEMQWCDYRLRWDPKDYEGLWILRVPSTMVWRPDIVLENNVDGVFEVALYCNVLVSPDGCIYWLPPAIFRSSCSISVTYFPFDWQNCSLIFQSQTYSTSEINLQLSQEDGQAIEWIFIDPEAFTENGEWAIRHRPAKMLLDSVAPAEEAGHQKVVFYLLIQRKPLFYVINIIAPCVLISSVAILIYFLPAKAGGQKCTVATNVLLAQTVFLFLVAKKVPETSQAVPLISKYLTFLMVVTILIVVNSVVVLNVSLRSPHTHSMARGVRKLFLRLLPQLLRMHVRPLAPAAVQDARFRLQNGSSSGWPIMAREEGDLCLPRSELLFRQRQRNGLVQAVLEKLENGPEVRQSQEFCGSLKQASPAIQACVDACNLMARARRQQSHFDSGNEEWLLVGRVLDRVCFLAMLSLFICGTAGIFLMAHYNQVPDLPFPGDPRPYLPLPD
T7 sequence (P02716 25-520): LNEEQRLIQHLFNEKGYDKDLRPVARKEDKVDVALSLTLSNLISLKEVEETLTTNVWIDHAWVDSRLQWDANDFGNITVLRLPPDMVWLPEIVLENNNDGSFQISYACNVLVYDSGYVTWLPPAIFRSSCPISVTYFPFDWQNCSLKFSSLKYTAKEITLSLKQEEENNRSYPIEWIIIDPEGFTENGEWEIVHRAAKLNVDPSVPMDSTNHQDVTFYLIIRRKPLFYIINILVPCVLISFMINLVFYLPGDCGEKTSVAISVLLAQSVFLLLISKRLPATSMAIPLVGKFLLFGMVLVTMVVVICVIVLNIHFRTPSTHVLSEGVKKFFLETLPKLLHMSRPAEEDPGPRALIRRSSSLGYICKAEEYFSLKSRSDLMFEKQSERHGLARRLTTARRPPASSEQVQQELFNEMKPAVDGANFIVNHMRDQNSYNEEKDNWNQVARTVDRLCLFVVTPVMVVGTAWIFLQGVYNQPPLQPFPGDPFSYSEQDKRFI
T1 sequence (P09483 31-630): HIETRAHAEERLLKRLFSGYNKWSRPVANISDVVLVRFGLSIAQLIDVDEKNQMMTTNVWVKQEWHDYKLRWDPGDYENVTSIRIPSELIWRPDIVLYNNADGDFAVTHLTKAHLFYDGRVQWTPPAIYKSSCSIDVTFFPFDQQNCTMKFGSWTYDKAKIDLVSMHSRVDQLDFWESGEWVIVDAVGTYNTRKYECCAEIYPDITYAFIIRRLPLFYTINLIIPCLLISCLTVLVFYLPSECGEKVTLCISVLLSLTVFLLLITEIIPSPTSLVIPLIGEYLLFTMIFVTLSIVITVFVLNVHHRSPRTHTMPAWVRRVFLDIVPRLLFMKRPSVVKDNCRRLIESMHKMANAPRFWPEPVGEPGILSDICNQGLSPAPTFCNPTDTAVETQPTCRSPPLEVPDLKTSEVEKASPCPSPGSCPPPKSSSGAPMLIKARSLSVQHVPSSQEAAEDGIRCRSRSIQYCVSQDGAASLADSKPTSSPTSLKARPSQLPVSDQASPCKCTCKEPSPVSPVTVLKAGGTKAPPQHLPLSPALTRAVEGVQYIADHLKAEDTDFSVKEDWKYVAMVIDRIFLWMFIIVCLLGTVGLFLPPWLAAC
T1 sequence (P12390 25-500): as the sequence (P12390 25-500) above
T2 sequence (P09483 31-630, stated change not applied): as the sequence (P09483 31-630) above
T2 sequence (P12390 25-500 V277F): as the sequence (P12390 25-500) above, with V253F counted along it
T3 sequence (P09483 31-630): as the sequence (P09483 31-630) above
T3 sequence (P12392 21-495): as the sequence (P12392 21-495 F275V) above, with V255F counted along it

Compound: CCCC(=O)N[C@@H](Cc1ccc(O)cc1)C(=O)NCCCCCCCCCCCCN [PhTX-12]
- IC50 (α4β2 nAChR; Late, α4β2, VH −60 mV, late current (1 min)): 230 nM
- IC50 (α4β2 nAChR; Late, α4β2, VH −80 mV, late current (1 min)): 280 nM
- IC50 (α4β2 nAChR; Late, α4β2, VH −100 mV, late current (1 min)): 44 nM
- IC50 (α4β2 nAChR; Peak, α4β2, VH −60 mV, peak current): 3870 nM
- IC50 (α4β2 nAChR; Peak, α4β2, VH −80 mV, peak current): 2170 nM
- IC50 (α4β2 nAChR; Peak, α4β2, VH −100 mV, peak current): 1640 nM
- times less sensitive than the most sensitive subtype (α4β2 nAChR; α4β2 vs α3β4 (for PhTX-12: α1β1γδ along with α3β4), late current IC50, −80 mV): 3 times
- reduction in late current IC50 as compared to α4β2 (α4β2(V253F) nAChR; α4β2(V253F) vs α4β2, late current, −80 mV): no significant differences
- change in peak current IC50 as compared to α4β2 (α4β2(V253F) nAChR; α4β2(V253F) vs α4β2, peak current, −80 mV): no significant differences
- IC50 (α4β2(V253F) nAChR; [2]): 410 nM
- IC50 (α4β2(V253F) nAChR; [3]): 2220 nM
- IC50 (α4β2(V253F) nAChR; [4]): 300 nM
- IC50 (α4β2(V253F) nAChR; [5]): 4050 nM
- IC50 (α4β2(V253F) nAChR; [6]): 190 nM
- IC50 (α4β2(V253F) nAChR; [7]): 3480 nM
- IC50 (α4β4 nAChR; Late, α4β4, VH −60 mV, late current (1 min)): 250 nM
- IC50 (α4β4 nAChR; Late, α4β4, VH −80 mV, late current (1 min)): 290 nM
- IC50 (α4β4 nAChR; Late, α4β4, VH −100 mV, late current (1 min)): 190 nM
- IC50 (α4β4 nAChR; Peak, α4β4, VH −60 mV, peak current): 1210 nM
- IC50 (α4β4 nAChR; Peak, α4β4, VH −80 mV, peak current): 1650 nM
- IC50 (α4β4 nAChR; Peak, α4β4, VH −100 mV, peak current): 2770 nM
- voltage dependence of inhibition, late current (α4β4 nAChR; α4β4, late current IC50 values, VH −60 to −100 mV): voltage-independent
- times less sensitive than the most sensitive subtype (α4β4 nAChR; α4β4 vs α3β4 (for PhTX-12: α1β1γδ along with α3β4), late current IC50, −80 mV): 3 times
- IC50 (α3β4 nAChR; IC50 (95% CI), Late, α3β4, VH −60 mV, late current (1 min), ACh 100 μM): 110 nM
- IC50 (α3β4 nAChR; IC50 (95% CI), Late, α3β4, VH −80 mV, late current (1 min), ACh 100 μM): 110 nM
- IC50 (α3β4 nAChR; IC50 (95% CI), Late, α3β4, VH −100 mV, late current (1 min), ACh 100 μM): 27 nM
- IC50 (α3β4 nAChR; IC50 (95% CI), Peak, α3β4, VH −60 mV, peak current, ACh 100 μM): 3090 nM
- IC50 (α3β4 nAChR; IC50 (95% CI), Peak, α3β4, VH −80 mV, peak current, ACh 100 μM): 2620 nM
- IC50 (α3β4 nAChR; IC50 (95% CI), Peak, α3β4, VH −100 mV, peak current, ACh 100 μM): 2030 nM
- IC50 (α3β4 nAChR; IC50, α3β4, late current, −80 mV): 100 nM
- surmountability of late current inhibition (α3β4 nAChR; α3β4, 0.3 μM toxin, late current, −80 mV): insurmountable
- surmountability of peak current inhibition by higher ACh concentrations (α3β4 nAChR; α3β4, 10 μM toxin, peak current, −80 mV): surmountable
- peak current during the first ACh application after removal of toxin (6 min) (α3β4 nAChR; α3β4, after 10 μM toxin, mean of all cells, −80 mV, not significantly greater than control (p = 0.217)): 119.4 % control response
- increase in late current IC50 as compared to α3β4 (α3β4(F255V) nAChR; α3β4(F255V) vs α3β4, late current, −80 mV): 3.3 fold
- reduction in peak current IC50 as compared to α3β4 (α3β4(F255V) nAChR; α3β4(F255V) vs α3β4, peak current, −80 mV): no difference
- IC50 (α3β4(F255V) nAChR; [2]): 520 nM
- IC50 (α3β4(F255V) nAChR; [3]): 1630 nM
- IC50 (α3β4(F255V) nAChR; [4]): 360 nM
- IC50 (α3β4(F255V) nAChR; [5]): 2780 nM
- IC50 (α3β4(F255V) nAChR; [6]): 68 nM
- IC50 (α3β4(F255V) nAChR; [7]): 1050 nM
- IC50 (α7 nAChR; Late, α7, VH −60 mV, based on the area under the current trace (no stable late current)): 8320 nM
- IC50 (α7 nAChR; Late, α7, VH −80 mV, based on the area under the current trace (no stable late current)): 4900 nM and 4920 nM
- IC50 (α7 nAChR; Late, α7, VH −100 mV, based on the area under the current trace (no stable late current)): 5020 nM
- IC50 (α7 nAChR; Peak, α7, VH −60 mV, peak current): 18700 nM
- IC50 (α7 nAChR; Peak, α7, VH −80 mV, peak current): 11100 nM
- IC50 (α7 nAChR; Peak, α7, VH −100 mV, peak current): 12100 nM
- recovery of the late current after 6 min (α7 nAChR; α7, 10 μM toxin, −80 mV): complete
- times less sensitive than the most sensitive subtype (α7 nAChR; α7 vs α3β4 (for PhTX-12: α1β1γδ along with α3β4), late current IC50, −80 mV): 49 times
- IC50 (α1β1γδ nAChR; Late, VH −60 mV, late current (1 min)): 70 nM
- IC50 (α1β1γδ nAChR; Late, VH −80 mV, late current (1 min)): 100 nM
- IC50 (α1β1γδ nAChR; Late, VH −100 mV, late current (1 min)): 71 nM
- IC50 (α1β1γδ nAChR; Peak, VH −60 mV, peak current): 3160 nM
- IC50 (α1β1γδ nAChR; Peak, VH −80 mV, peak current): 6180 nM
- IC50 (α1β1γδ nAChR; Peak, VH −100 mV, peak current): 5020 nM
- surmountability of late current inhibition (α1β1γδ nAChR; 0.3 μM toxin, late current, −80 mV): insurmountable
- surmountability of peak current inhibition by increasing ACh concentrations (α1β1γδ nAChR; 10 μM toxin, peak current, −80 mV): surmountable
- voltage dependence of inhibition, late current (α1β1γδ nAChR; late current IC50 values, VH −60 to −100 mV): voltage-independent
- lower potency at human muscle-type nAChRs in TE671 cells than in the present study [1]: 11 fold
- effect on membrane current when applied alone (nAChRs; 100 μM applied alone, VH = −80 mV, oocytes expressing nAChRs): did not produce any effect on membrane current
- voltage dependence of inhibition of peak current (nAChRs; all nAChRs, peak current, VH −60 to −100 mV): voltage-independent for all nAChRs except for homomeric α7
- reversibility of inhibition of nAChRs (nAChRs; all subunit combinations, 10 μM toxin, −80 mV): fully or almost reversible after 6 min
- IC50 (α3β2 nAChR; Late, α3β2, VH −60 mV, late current (1 min)): 3200 nM
- IC50 (α3β2 nAChR; Late, α3β2, VH −80 mV, late current (1 min)): 2570 nM
- IC50 (α3β2 nAChR; Late, α3β2, VH −100 mV, late current (1 min)): 1380 nM
- IC50 (α3β2 nAChR; Peak, α3β2, VH −60 mV, peak current): 65200 nM
- IC50 (α3β2 nAChR; Peak, α3β2, VH −80 mV, peak current): 60000 nM and 60600 nM
- IC50 (α3β2 nAChR; Peak, α3β2, VH −100 mV, peak current): 74400 nM
- recovery of the late current after 6 min (α3β2 nAChR; α3β2, 10 μM toxin, −80 mV): complete
- recovery of the peak current after 6 min (α3β2 nAChR; α3β2, 10 μM toxin, −80 mV): complete
- times less sensitive than the most sensitive subtype (α3β2 nAChR; α3β2 vs α3β4 (for PhTX-12: α1β1γδ along with α3β4), late current IC50, −80 mV): 26 times
